Experimental data reported in patent US6787547B2, “Compound and method for the treatment of pain” (Astrazeneca AB, priority 1999, dated 2004).

Tests used:
[1] = molecular target: T1, NMDA receptor glycine site (Homo sapiens, UniProt Q05586); test: Test A: Inhibition of binding of [3H]-MDL105,519, human brain membranes
T1 construct: Human brain membranes were obtained from Analytical Biological Services Inc; tissue Analytical Biological Services Inc; host or cells: human brain membranes
Experimental: (§1) Test A: Inhibition of Binding of [^3H]-MDL105,519
[^3H]MDL105,519 (72 Ci/mmol) was purchased from Amersham. Cold MDL105,519 was purchased from Sigma/RBI. Binding assays were performed substantially in accordance with the protocol of B. M. Baron et al, J. Pharmacol. Exp. Ther. 279, 62 (1996), as follows. On the day of the experiment, brain membranes were thawed at room temperature and suspended in 50 mM tris acetate buffer, pH 7.4 (“TAB”). Seventy-five micro grams per milliliter protein (by using the BioRad dye) were used for competition binding. The experiments were carried out using 96-well plates. Membranes were incubated with 20 μL of compounds of various concentrations and 1.2 nM [^3H]MDL105,519 for 30 minutes at room temperature in a total volume of 250 μL. Non specific binding was determined by using 100 μM of unlabeled MDL105,519. The unlabeled MDL105,519 and compounds were dissolved as 12.5 mM stock solutions in DMSO. Final DMSO concentration in each well was kept below 1%, which concentration was found not to alter the binding results. […] The plates were dried overnight at room temperature and bound radioactivity was measured on a Packard TopCount after the addition of 45 μL per well of the MICROSCINT O. Potency of a compound is expressed as the Ki and results were calculated using Microsoft Excel spreadsheet and GraphPad Prizm software. […]

[2] = test system: NMDA induced behavior/seizure; test: Inhibition of NMDA induced behavior/seizure after intrathecal injection; type: in vivo; set-up: unit not given here
[3] = test system: CCI rats, heat hyperalgesia; test: Test C: Neuropathic pain model (Chronic Constriction Injury), thermal hyperalgesia; type: in vivo, rat
Experimental: Test C: Neuropathic Pain Model (Chronic Constriction Injury)
Dose response studies are conducted with multiple groups of CCI rats dosed orally with either vehicle or the test compound three times daily with either vehicle or the test compound for 5 days. […] Efficacy is calculated as mean percentage decrease of hyperalgesia over 5 dosing days compared to vehicle-treated group. Compound potencies are expressed as the minimum effective dose (MED) in mg/Kg/day that yields a % decrease in hyperalgesia that is statistically significant, where the anti-hyperalgesic effect is determined as follows:
% of anti-hyperalgesia=(Mean of vehicle group−Mean of compound group)×100 (Mean of vehicle group)
Data analysis was performed by multiple means comparison (Dunnett's test).

[4] = molecular target: T2, NMDA receptor glycine site (Rattus norvegicus, UniProt P35439); test: Test A: Inhibition of binding of [3H]-MDL105,519, rat brain membranes; settings: 1.2 nM [3H]MDL105,519
T2 construct: The rat brain membranes used in the experiments were obtained from Analytical Biological Services Inc; tissue Analytical Biological Services Inc; host or cells: rat brain (cerebral cortex and hippocampus) membranes
Experimental: as §1
The rat brain membranes used in the experiments were obtained from Analytical Biological Services Inc., and were prepared substantially in accordance with the method of B. M. Baron et al., J. Pharmacol. Exp. Ther. 250, 162 (1989). Briefly, fresh brain tissue including cerebral cortex and hippocampus from male Sprague Dawley rats was homogenized in 0.32 M sucrose and centrifuged at low speed to separate cellular membranes from other cellular components. The membranes were then washed 3 times using deionized water, followed by treatment with 0.04% Triton X-100. Finally, membranes were washed six times in 50 mM Tris citrate buffer, pH 7.4, and frozen at −80° C. until use.
[^3H]MDL105,519 (72 Ci/mmol) was purchased from Amersham. Cold MDL105,519 was purchased from Sigma/RBI. Binding assays were performed substantially in accordance with the protocol of B. M. Baron et al, J. Pharmacol. Exp. Ther. 279, 62 (1996), as follows. […] Non specific binding was determined by using 100 μM of unlabeled MDL105,519. […] The plates were dried overnight at room temperature and bound radioactivity was measured on a Packard TopCount after the addition of 45 μL per well of the MICROSCINT O. Potency of a compound is expressed as the Ki and results were calculated using Microsoft Excel spreadsheet and GraphPad Prizm software.

[5] = test system: formalin-induced nociceptive behaviors in rats; test: Test B: Formalin test (formalin-induced nociceptive behaviors); type: in vivo, rat
Text: The Formalin test assesses the inhibitory effects of orally administered compounds on formalin-induced nociceptive behaviors in rats (D. Dubuisson, et al., Pain 4, 161-174 (1977); H. Wheeler-Aceto et al., Psychopharmacology 104, 35-44 (1991); T. J. Coderre, et al, Pain 54, 43-50 (1993)). In the test two distinctive phases of formalin-induced behaviors are detected. A first phase response, caused by acute nociception to the noxious chemical (formalin) injected into the paw, occurs between 0 to 5 minutes. A quiescent period of between 5 to 15 min post injection follows. After the quiescent period a second phase response, caused by sensitization of the central neurons in the dorsal horn, occurs after 15 minutes and lasts up to 60 minutes. Central sensitization augments a noxious afferent input causing a stronger pain barrage to be transmitted to the brain. Inhibition of the second phase response indicates a spinal mechanism of drug action.
The procedure for the formalin test is as follows: male rats are placed in a plexiglass chamber and observed for 30-45 min. to observe their baseline activity. […] The number of paw flinches (responses) during first phase (0-5 min.) and second phase (20-35 min.) are scored and recorded. Flinch response is calculated as percentage of inhibition compared with the mean score of a saline control group. […]

[6] = test system: panel of more than 80 non-NMDA receptors; test: Binding to a panel of more than 80 non-NMDA receptors
Experimental: The compound of the invention was also tested for binding to a panel of more than 80 non-NMDA receptors.

SMILES | Ki [1] | ED50 for inhibition of development of NMDA induced behavior/seizure [2] | Minimal effective dose / dose required, CCI model of neuropathic pain [3] | MED (minimum effective dose), CCI model of neuropathic pain ([3]; oral, three times daily for 5 days) | Ki [4] | ED50 ([5]; Rattus norvegicus, po, read-out: Efficacy in formalin pain model, ED50) | Interaction with non-NMDA receptors [6] | % anti-hyperalgesia in CCI model of neuropathic pain, heat hyperalgesia ([3]; oral, three times daily for 5 days, at the stated effective dose) | Efficacy in formalin pain model, ED50 ([5]; rats, oral, dosed 3 hours prior to formalin, dose producing 50% inhibition of nociceptive response)
Cc1ccc(-n2nc(O)c3nc4cc(Cl)ccc4c(O)c3c2=O)c(Cl)c1 [compound of the invention, 7-chloro-4-hydroxy-2-(2-chloro-4-methylphenyl)-1,2,5,10-tetrahydropyridazino[4,5-b]quinoline-1,10-dione] | 50 nM | 110 | less than 2 mg/Kg/day | MED < 2 mg/Kg/d | 56 nM | ~100 mg/kg | no significant interaction | – | –
NCC1(CC(=O)O)CCCCC1 [gabapentin, reference compound] | – | – | about 90 mg/Kg/day | – | – | – | – | about 46% | comparable
